Holding throughout (experiment): NCI anticancer screen, dose series, 48 h
Assay [1] has as its system A549 NSCLC.
In assay [2] the test system is HOP-92 NSCLC.
For assay [3], the system named is KM12 colon.
Assay [4] concerns DU-145 prostate.
Assay [5] deals with SF-539 CNS.
The subject of assay [6] is EKVX NSCLC.
Assay [7] deals with OVCAR-4 ovarian.
Assay [8] has as its system MDA-MB-435.
Assay [9] concerns NCI-H522 lung.
For assay [10], the system named is M14 melanoma.
The test system of assay [11] is CCRF-CEM leukemia.
In assay [12] the test system is HCC-2998 colon.
The subject of assay [13] is 786-0 renal.
The test system of assay [14] is SNB-75 CNS.
The subject of assay [15] is RXF 393 renal.
Assay [16] deals with OVCAR-3 ovarian.
Assay [17] relates to NCI-H23 lung.
Assay [18] deals with HCT-15 colon.
Assay [19] concerns SK-MEL-2 melanoma.

The structures appear in SMILES notation.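 Five compound concentrations were applied to cells in 96-well plates for 48 hours; endpoints were derived by simple linear interpolation of the resulting dose-response curve. The concentration for full growth arrest is given as TGI.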

As for `C=C(Cl)C(Br)(CBr)CCC(Br)C(C)(C)Br` (stereo not given), the TGI in assay [1] is above 10 µM; in assay [2] it was above 10 µM; in assay [3], above 10 µM; in [4], above 10 µM; in [5] it was 4.92 µM; in [6], above 10 µM. The TGI in assay [7], in [8], in assay [9], in assay [10], in [11] and in [12] was above 10 µM each time. Further, the TGI was 3.08 µM in [13]; above 10 µM in assay [14]; 7.86 µM in [15]; above 10 µM in assay [16]; above 10 µM in assay [17].

In the case of `COc1cc(CCCC(O)COc2cccc3c2C2(O)CCCCCC32)cc(OC)c1` (stereo not given), the TGI came to 30.8 µM in [1]; 19.9 µM in assay [2]; 34.5 µM in assay [3]; 34 µM in assay [18]; 28.1 µM in [5]; 30.6 µM in [6]. In addition, the TGI in assay [7] was 40.6 µM; in assay [9], 42.1 µM; in assay [10] it was 35.7 µM; in assay [11] it was above 100 µM; in [12] it was 17.9 µM; in assay [13], 28.7 µM. The TGI is 30.2 µM in assay [14], 43.2 µM in assay [15], 32.6 µM in [17] and 35.7 µM in [19].

Regarding `O=S1(=O)OCCCOS(=O)(=O)C1Br`, the TGI in [1], in assay [3], in assay [4], in [18], in assay [5] and in assay [6] was above 100 µM throughout. Besides, the TGI in [7], in [8], in assay [9], in [10], in [12] and in assay [13] was above 100 µM throughout. Further, the TGI in assay [14], in assay [15], in assay [16], in [17] and in assay [19] was above 100 µM in each case.

On to `COc1c(O)cc2c(c1O)C1O[C@H](CO)C(O)[C@H](O)[C@H]1OC2=O` (stereo not given in full), for which the TGI in assay [1], in assay [2], in assay [3], in assay [4], in assay [18] and in assay [5] was above 100 µM in each case. Further, the TGI in assay [7], in assay [8], in assay [9], in [10], in assay [11] and in [12] was above 100 µM throughout. In addition, the TGI in assay [13], in assay [14], in assay [15], in assay [16], in [17] and in assay [19] was above 100 µM in each case.

On to `CNC(=O)CN(CC(N)=O)C(=O)NC`, for which the TGI in [1], in [2], in [3], in [18], in assay [5] and in assay [6] was above 100 µM throughout. The TGI in assay [7], in [9], in assay [10], in [11], in assay [12] and in assay [13] was above 100 µM in each case. The TGI in [14], in assay [15], in assay [16], in assay [17] and in assay [19] was above 100 µM each time.

`O=C(Nc1ccccc1)C(=O)C(C(=O)c1ccccc1)C(c1ccccc1)c1ccccc1` (stereo not given): the TGI in [1], in assay [2], in assay [4], in assay [18], in assay [6] and in [7] was above 10 µM each time. The TGI in assay [8], in [10], in [11], in [12], in assay [13] and in assay [14] was above 10 µM each time. The TGI in assay [15] and in [17] was above 10 µM throughout.

On to `COC(=O)c1cc(C#N)[nH]c1-c1cccs1`, for which the TGI in [1], in assay [2], in assay [3], in assay [4], in assay [18] and in assay [5] was above 100 µM in each case. Also, the TGI in assay [6], in assay [7], in assay [8], in assay [9], in [10] and in assay [11] was above 100 µM each time. Besides, the TGI is above 100 µM in [12]; above 100 µM in [13]; above 100 µM in assay [14]; 86.1 µM in assay [15]; above 100 µM in assay [16]; above 100 µM in assay [17].

As to `O=S1c2ccc(Cl)cc2CC(SSC2Cc3cc(Cl)ccc3S(=O)c3ccccc32)c2ccccc21` (stereo not given), the TGI in [1], in assay [2], in [3], in assay [5], in [6] and in [7] was above 100 µM throughout. Further, the TGI in assay [9], in assay [10], in assay [11], in assay [12], in [13] and in assay [14] was above 100 µM throughout. For the same molecule, the TGI in assay [15], in [16], in assay [17] and in assay [19] was above 100 µM each time.

For `O=C(NN1C(=O)c2ccccc2C1=O)c1ccccc1Nc1ccccc1C(=O)NN1C(=O)c2ccccc2C1=O`, the TGI in [2], in assay [3], in [4], in assay [18], in assay [5] and in assay [6] was above 100 µM each time. Also, the TGI in assay [7], in assay [8], in [9], in assay [10], in [11] and in assay [12] was above 100 µM throughout. The TGI in assay [13], in assay [14], in assay [15], in [16], in [17] and in assay [19] was above 100 µM each time.

Regarding `CO[C@H](c1ccccc1)[C@H](O)[C@](O)(c1ccccc1)P(=O)(OC)OC`, the TGI in assay [1], in [2], in assay [3], in [4], in [18] and in assay [5] was above 100 µM in each case. Also, the TGI in assay [6], in assay [7], in [8], in assay [9], in assay [10] and in assay [11] was above 100 µM each time. In addition, the TGI in [12], in [13], in assay [14], in [15], in [16] and in assay [17] was above 100 µM each time. In addition, the TGI in assay [19] was above 100 µM.

As for `CN(CCO)c1nc2c(c(=O)[nH]1)CNCC2`, the TGI in assay [1], in assay [2], in assay [3], in assay [18], in assay [5] and in [6] was above 100 µM throughout. Moreover, the TGI in assay [7], in assay [9], in assay [10], in assay [11], in assay [12] and in assay [13] was above 100 µM throughout. Also, the TGI in assay [14], in assay [15], in assay [16], in [17] and in [19] was above 100 µM each time.

For the molecule `Cc1cc2nc3c(C#N)c(-c4ccccc4)cc(Nc4ccc(F)cc4)n3c2cc1C`, the TGI is 36.5 µM in assay [2]; above 100 µM in [3]; above 100 µM in assay [18]; 34.8 µM in [5]; 52.9 µM in assay [6]; above 100 µM in [7]. Further, the TGI in assay [8] is above 100 µM; in assay [9], 30.7 µM; in assay [13] it was 22.5 µM; in assay [14], 57.5 µM; in assay [15] it was 61.3 µM; in assay [16], 46.4 µM. In assay [17], this molecule registered a TGI of 47.2 µM.

For the molecule `CC1=[N+]([O-])C(C)(C)N(O)C1(C)C`, the TGI in assay [1], in assay [2], in assay [3], in assay [4], in [18] and in assay [5] was above 100 µM in each case. For the same molecule, the TGI in assay [6], in assay [7], in assay [8], in assay [9], in [10] and in [11] was above 100 µM throughout. Also, the TGI in assay [12], in [13], in [14], in [15], in assay [16] and in [17] was above 100 µM each time. Further, in assay [19], the TGI is above 100 µM.

In the case of `CCCCc1ccc(N2C(=O)c3cccnc3S2(=O)=O)cc1`, the TGI in [1], in assay [2], in [3], in [4], in assay [18] and in assay [5] was above 100 µM in each case. Moreover, the TGI in assay [6], in assay [7], in assay [8], in [9], in [10] and in assay [11] was above 100 µM each time. Also, the TGI in [12], in [13], in assay [14], in assay [15], in assay [16] and in [17] was above 100 µM in each case. Moreover, the TGI in assay [19] was above 100 µM.

Consider `CC(CCC(=O)O)[C@H]1CCC2[C@H]3C(CC(=O)[C@@]21C)[C@@]1(C)CCC(O)C[C@H]1C[C@@H]3O` (stereo not given in full), for which the TGI in assay [1], in [2], in [3], in assay [4], in [18] and in [5] was above 100 µM in each case. Further, the TGI in [6], in assay [7], in assay [8], in assay [9], in [10] and in assay [11] was above 100 µM in each case. In addition, the TGI in [12], in [13], in assay [14], in assay [15], in assay [17] and in assay [19] was above 100 µM throughout.

Take `CC(C)N1CCCOC(c2ccc([N+](=O)[O-])cc2)O1` (stereo not given): the TGI in assay [1], in assay [2], in assay [3], in assay [4], in assay [18] and in [5] was above 100 µM in each case. Further, the TGI in assay [6], in assay [7], in [8], in assay [9], in [10] and in assay [11] was above 100 µM in each case. The TGI in assay [12], in assay [13], in assay [14], in assay [15], in assay [16] and in assay [17] was above 100 µM in each case. In assay [19], the TGI is above 100 µM.

Values taken from PubChem BioAssay (NCI).
